In series [1] the test system is IMR-32. The series is described as follows: Cell cycle arrest in Homo sapiens (human) IMR32 cells assessed as decrease of G2-M phase cell accumulation at 20 to 200 uM by FACS analysis. In kind it is functional, cell-based. In general terms: A flow cytometer gives signals particle by particle.
The subject of series [2] is IMR-32. The series is described as follows: (§1) Cytotoxicity against Homo sapiens (human) IMR32 cells after 16 hr by MTT assay. In kind it is functional, cell-based. In general terms: Tetrazolium dyes change colour on reduction, which living cells bring about.
Series [3] is described as follows: Cytotoxicity against fibroblasts.
Series [4] concerns IMR-32. The series is described as follows: Cytotoxicity against Homo sapiens (human) IMR32 cells at 20 to 200 uM after 16 hr by MTT assay. In kind it is functional, cell-based.
The target in series [5] is Cyclin-dependent kinase 2 (Homo sapiens) (UniProt P24941). The series is described as follows: Destabilization of CDK2 in Homo sapiens (human) Jurkat cells by immunoblot analysis. Format: cell-based. On the technique in general: In western blotting, separated proteins are transferred to a membrane and probed.
Series [6] has as its system Jurkat. The series is described as follows: Cell cycle arrest in Homo sapiens (human) Jurkat cells assessed as decrease of G2-M phase cell accumulation at 20 to 200 uM by FACS analysis. In kind it is functional, cell-based.
In series [7] the test system is Jurkat. The series is described as follows: Cytotoxicity against Homo sapiens (human) Jurkat cells after 16 hr by MTT assay. In kind it is functional.
The target in series [8] is Cyclin-dependent kinase 2 (Homo sapiens) (UniProt P24941). Description: Destabilization of CDK2 in Homo sapiens (human) IMR32 cells by immunoblot analysis. Format: cell-based. The conditions noted are these: IMR-32.
Series [9] relates to IMR-32. Description: Cytotoxicity against Homo sapiens (human) IMR32 cells at 200 uM after 16 hr by MTT assay. Format: functional.
Series [10] concerns the target Mitogen-activated protein kinase 3 (Homo sapiens) (UniProt P27361). Description: Destabilization of ERK1 in Homo sapiens (human) IMR32 cells by immunoblot analysis. In kind it is cell-based. The conditions noted are these: IMR-32.
Series [11] deals with HeLa. The series is described as follows: Cell cycle arrest in Homo sapiens (human) HeLa cells assessed as decrease of G1 phase cell accumulation at 20 to 200 uM by FACS analysis. Format: functional, cell-based.
For a further series, the species on record is Homo sapiens. Description: Inhibition of tyrosine kinase (unknown origin).
In series [12] the target is Mitogen-activated protein kinase 3 (Homo sapiens) (UniProt P27361). The series is described as follows: Destabilization of ERK1 in Homo sapiens (human) HeLa cells by immunoblot analysis. Format: cell-based.
Series [13] shares this target. Description: Destabilization of ERK1 in Homo sapiens (human) Jurkat cells by immunoblot analysis. Format: cell-based.
The subject of series [14] is HeLa. The series is described as follows: Cytotoxicity against Homo sapiens (human) HeLa cells after 16 hr by MTT assay. In kind it is functional.
For series [15], the system named is IMR-32. Description: Cell cycle arrest in Homo sapiens (human) IMR32 cells assessed as decrease of G1 phase cell accumulation at 20 to 200 uM by FACS analysis. In kind it is functional, cell-based.
Series [16] relates to HeLa. Description: Cell cycle arrest in Homo sapiens (human) HeLa cells assessed as decrease of G2-M phase cell accumulation at 20 to 200 uM by FACS analysis. In kind it is functional, cell-based.
Series [17] has as its system IMR-32. The description is as §1. Format: functional.
Series [18] deals with Cyclin-dependent kinase 2 (Homo sapiens) (UniProt P24941). The series is described as follows: Destabilization of CDK2 in Homo sapiens (human) HeLa cells by immunoblot analysis. In kind it is cell-based.
Series [19] concerns Jurkat. Description: Cell cycle arrest in Homo sapiens (human) Jurkat cells assessed as decrease of G1 phase cell accumulation at 20 to 200 uM by FACS analysis. Format: functional, cell-based.
The subject of series [20] is HeLa. The series is described as follows: Induction of endoplasmic reticulum stress in Homo sapiens (human) HeLa cells assessed as Grp94 expression by immunoblot analysis. In kind it is functional, cell-based.
Series [21] concerns IMR-32. The series is described as follows: Induction of endoplasmic reticulum stress in Homo sapiens (human) IMR32 cells assessed as Grp94 expression by immunoblot analysis. In kind it is functional, cell-based.
The subject of series [22] is Jurkat. Description: Induction of endoplasmic reticulum stress in Homo sapiens (human) Jurkat cells assessed as Grp94 expression by immunoblot analysis. Format: functional, cell-based.

Calls of active or inactive are those of the source. No cut-off for these calls is given here.

Mitogen-activated protein kinase 3 (Homo sapiens), sequence (P27361 whole entry): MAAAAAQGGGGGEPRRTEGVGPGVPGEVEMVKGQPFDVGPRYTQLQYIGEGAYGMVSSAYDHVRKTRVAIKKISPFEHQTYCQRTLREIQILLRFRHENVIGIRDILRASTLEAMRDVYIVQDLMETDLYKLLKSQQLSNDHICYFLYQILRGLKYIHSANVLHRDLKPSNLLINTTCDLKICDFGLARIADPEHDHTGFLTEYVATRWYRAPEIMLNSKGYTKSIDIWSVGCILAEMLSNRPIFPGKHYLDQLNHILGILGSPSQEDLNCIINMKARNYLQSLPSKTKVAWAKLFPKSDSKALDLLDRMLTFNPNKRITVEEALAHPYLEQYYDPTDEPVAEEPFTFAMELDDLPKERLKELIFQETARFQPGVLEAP

For `COc1c(-c2cc(-c3ccccc3)n(-c3cccc([N+](=O)[O-])c3)n2)ccc2occc12`, the result with IMR-32 [1] was inactive. Also, the Activity result is “Dose-dependent effect” with IMR-32 [2] and “Non-toxic” in series [3].

For `COc1c(-c2cc(-c3ccccc3)n(-c3ccccc3)n2)ccc2occc12`, the outcome in the series with IMR-32 [1] and with IMR-32 [4] was inactive. In series [3], the Activity result is given as “Non-toxic”.

Turning to `COc1c(-c2cc(-c3ccccc3)on2)ccc2occc12`, the outcome (in [5]; with Jurkat [6]; in the series on IMR-32 [1]; in series [8]; in series [10]; in the series on HeLa [11]) was Active. The outcome (in series [12]; in series [13]; in the series with IMR-32 [15]; in the series with HeLa [16]; in series [18]; with Jurkat [19]) was Active. Moreover, the Activity is 31% with Jurkat [7]; 60% with IMR-32 [9]; “Dose-dependent effect” in the series on IMR-32 [2]; 26% with HeLa [14]; “Non-toxic” in series [3]; 58% with IMR-32 [17]. In the series listed under Homo sapiens, the inhibition entry was “inactive”.

`COc1ccc(-n2nc(-c3ccc4occc4c3OC)cc2-c2ccccc2)cc1`: the result in the series on IMR-32 [1] and in the series with IMR-32 [4] was inactive. Further, the Activity result in series [3] was “Non-toxic”.

Regarding `COc1c(-c2cc(-c3ccccc3)n(-c3ccc(Cl)cc3Cl)n2)ccc2occc12`, the result in the series with IMR-32 [1] and in the series on IMR-32 [4] was inactive. Further, the Activity entry in series [3] was “Non-toxic”.

Regarding `COc1c(-c2cc(-c3ccccc3)[nH]n2)ccc2occc12`, the result with IMR-32 [1] was inactive. Also, the Activity result in the series on IMR-32 [2] is “Dose-dependent effect”; in series [3], “Non-toxic”.

Regarding `COc1c(-c2cc(-c3ccccc3)n(-c3ccc(F)cc3)n2)ccc2occc12`, the result in the series on IMR-32 [1] was inactive. Moreover, the values for the Activity entry (in the series with IMR-32 [2]; in series [3]) were “Dose-dependent effect” and “Non-toxic”, respectively.

For the compound `COc1c(-c2cc(-c3ccccc3)n(-c3ccc(C)cc3C)n2)ccc2occc12`, the result in the series with IMR-32 [1] and with IMR-32 [4] was inactive. Also, the Activity entry in series [3] is given as “Non-toxic”.

With `COc1c(-c2cc(-c3ccccc3)n(-c3ccccc3F)n2)ccc2occc12`, the outcome (in [5]; with Jurkat [6]; in series [8]; in the series with HeLa [11]; in series [12]; in the series with IMR-32 [15]) was Active. Also, the result (in the series on HeLa [16]; in series [18]; in the series with Jurkat [19]) was Active. The Activity is 45% with Jurkat [7]; 60% with IMR-32 [9]; “Dose-dependent effect” in the series with IMR-32 [2]; 35% in the series with HeLa [14]; “Non-toxic” in [3]; 71% in the series with IMR-32 [17]. Also, the outcome with IMR-32 [1] was inactive. In addition, the inhibition entry in the series filed under Homo sapiens was “inactive”.

For the compound `COc1c(-c2cc(-c3ccccc3)n(-c3ccc([N+](=O)[O-])cc3[N+](=O)[O-])n2)ccc2occc12`, in the series on IMR-32 [1], the result was inactive. Besides, the Activity result with IMR-32 [2] is “Dose-dependent effect”; in series [3], “Non-toxic”.

For the compound `COc1c(-c2cc(-c3ccccc3)n(-c3ccccc3C)n2)ccc2occc12`, the result with IMR-32 [1] was inactive. The Activity result in the series with IMR-32 [2] was “Dose-dependent effect”; in series [3], “Non-toxic”. Further, in the series on IMR-32 [15], the outcome was Active.

For `COc1c(-c2cc(-c3ccccc3)n(-c3cccc(F)c3)n2)ccc2occc12`, the result (in series [5]; in the series with Jurkat [6]; in the series with IMR-32 [1]; in series [8]; with HeLa [20]; in series [10]) was Active. For the same compound, the result (with HeLa [11]; with IMR-32 [15]; in the series with HeLa [16]; in the series with IMR-32 [21]; in series [18]; in the series with Jurkat [19]) was Active. The outcome with Jurkat [22] was Active. For the same compound, the Activity in the series with Jurkat [7] is 35%; in the series on IMR-32 [9] it was 60%; in the series on IMR-32 [2] it was “Dose-dependent effect”; in the series with HeLa [14] it was 28%; in series [3] it was “Non-toxic”; in the series with IMR-32 [17], 86%. In addition, the inhibition result in the series listed under Homo sapiens was “inactive”.

For `COc1c(C(=O)/C=C(\O)c2ccccc2)ccc2occc12` [PONGAMOL], the outcome in the series on Jurkat [6], with IMR-32 [1], in the series on HeLa [20], in the series with HeLa [11], in the series with HeLa [16] and in the series with IMR-32 [21] was Active. Moreover, the result with Jurkat [19] and with Jurkat [22] was Active. For the same compound, the Activity is 17% in the series on Jurkat [7], 23% in the series on HeLa [14], “Non-toxic” in [3] and 38% with IMR-32 [17]. The inhibition entry in the series filed under Homo sapiens is “inactive”. Moreover, in the series with IMR-32 [4], the result was inactive.

Source of the values: ChEMBL document CHEMBL3046914, “Synthesis and anticancer effects of pongamol derivatives on mitogen signaling and cell cycle kinases” (Med Chem Res, 2012).
